Test results: ChEMBL document CHEMBL1201862, “PubChem BioAssay data set” (2004)
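Grown in 96-well plates, cells were treated for 48 hours with each compound at five concentrations. Insufficient inhibition: endpoint recorded as highest concentration tested. GI50 is the concentration that inhibits growth by half.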 Active and inactive are the calls of the source. Cut-off read from the data, not from the text of the source: active = GI50 up to about 1.1 µM and inactive = higher.

Columns and labels:
Assay in all cases: NCI-60 cell line screen, 48 h
CAKI-1 = system: CAKI-1
CCRF-CEM = system: CCRF-CEM
DU-145 = system: DU-145
HCC 2998 = system: HCC 2998
HL-60 = system: HL-60
HOP-62 = system: HOP-62
IGROV-1 = system: IGROV-1
M14 = system: M14
MDA-MB-231 = system: MDA-MB-231
MDA-MB-435 = system: MDA-MB-435
NCI-H226 = system: NCI-H226
NCI-H460 = system: NCI-H460
SF-268 = system: SF-268
SF-295 = system: SF-295
SW-620 = system: SW-620
T47D = system: T47D
SNB-75 = system: SNB-75
RXF 393 = system: RXF 393

Compound	GI50 (CAKI-1)	GI50 (CCRF-CEM)	GI50 (DU-145)	GI50 (HCC 2998)	GI50 (HL-60)	GI50 (HOP-62)	GI50 (IGROV-1)	GI50 (M14)	GI50 (MDA-MB-231)	GI50 (MDA-MB-435)	GI50 (NCI-H226)	GI50 (NCI-H460)	GI50 (SF-268)	GI50 (SF-295)	GI50 (SW-620)	GI50 (T47D)	GI50 (SNB-75)	GI50 (RXF 393)
O=C(O)c1nc2cc(C(F)(F)F)ccc2[nH]c1=O	> 100 µM (inactive)	> 100 µM (inactive)	> 100 µM (inactive)	> 100 µM (inactive)	> 100 µM (inactive)	> 100 µM (inactive)	> 100 µM (inactive)	> 100 µM (inactive)	> 100 µM (inactive)	> 100 µM (inactive)	> 100 µM (inactive)	> 100 µM (inactive)	> 100 µM (inactive)	> 100 µM (inactive)	> 100 µM (inactive)	> 100 µM (inactive)		
Cc1ccc(/N=N/C(=O)NNc2ccc(C)c([N+](=O)[O-])c2)cc1[N+](=O)[O-]	18.8 µM (inactive)	19.2 µM (inactive)	25.1 µM (inactive)	17.4 µM (inactive)	17.9 µM (inactive)	20.8 µM (inactive)	17.7 µM (inactive)	40 µM (inactive)	36.6 µM (inactive)	36.5 µM (inactive)	51.9 µM (inactive)	28.6 µM (inactive)	28.6 µM (inactive)		41 µM (inactive)	4.45 µM (inactive)	19.6 µM (inactive)	
Cc1cc(OCc2nnc3sc(NC(=O)c4ccccc4)nn23)ccc1Cl	18 µM (inactive)	43.3 µM (inactive)	24.4 µM (inactive)	26.7 µM (inactive)	34.6 µM (inactive)	20.1 µM (inactive)	25.4 µM (inactive)	27.4 µM (inactive)	42.4 µM (inactive)	22 µM (inactive)	> 100 µM (inactive)	39.1 µM (inactive)	45 µM (inactive)	36.6 µM (inactive)	> 100 µM (inactive)	44.4 µM (inactive)		30.6 µM (inactive)
N#Cc1c(N)nc(Sc2ccccc2N)c(C#N)c1-c1ccc(Cl)cc1	17.9 µM (inactive)	> 27.2 µM (inactive)	12.7 µM (inactive)	9.73 µM (inactive)	> 27.5 µM (inactive)	3.7 µM (inactive)	5.52 µM (inactive)	10.5 µM (inactive)	9.77 µM (inactive)	11.7 µM (inactive)	37.2 µM (inactive)	9.46 µM (inactive)	6.24 µM (inactive)	6.65 µM (inactive)	> 33.3 µM (inactive)	0.368 µM (active)		16 µM (inactive)
COCCOC(=O)c1c(C)[n+]([O-])c2cc(Cl)c(Cl)cc2[n+]1[O-]	19 µM (inactive)	9.29 µM (inactive)	11.5 µM (inactive)		6.41 µM (inactive)	11 µM (inactive)	3.85 µM (inactive)	18.6 µM (inactive)	24.1 µM (inactive)	17.5 µM (inactive)		7.85 µM (inactive)	14.2 µM (inactive)	17.1 µM (inactive)	20 µM (inactive)	4.68 µM (inactive)		30.4 µM (inactive)
S=CN1CCCCC1	> 100 µM (inactive)	> 100 µM (inactive)	> 100 µM (inactive)	> 100 µM (inactive)	> 100 µM (inactive)	> 100 µM (inactive)	> 100 µM (inactive)	> 100 µM (inactive)	> 100 µM (inactive)	> 100 µM (inactive)	> 100 µM (inactive)	> 100 µM (inactive)	> 100 µM (inactive)	> 100 µM (inactive)	> 100 µM (inactive)	> 100 µM (inactive)	> 100 µM (inactive)	
